Source: patent US20220305012A1, “L[…] TREATING SLEEP ISSUES” (EISAI R&D MANAGEMENT CO., LTD., priority 2019, published 2022)

Test system: Subjects Having Insomnia Disorder
Test: Example 2: minutes asleep in sleep stages (N1, N2, N3, REM, non-REM)
Type: in vivo, human
Conditions: both doses (FIG. 15)
Experimental: FIG. 13A, FIG. 13B, and FIG. 13C show the change from baseline (least squares mean) in the minutes asleep during Stage N1, Stage N2, and Stage N3 sleep, respectively, at Nights 1/2 and Nights 29/30 in patients treated with placebo, 6.25 mg of zolpidem, 5 mg of lemborexant, or 10 mg of lemborexant.

Structure (SMILES): Cc1ncc(OC[C@@]2(c3cccc(F)c3)C[C@H]2C(=O)Nc2ccc(F)cn2)c(C)n1 [Lemborexant, (1R,2S)-2-(((2,4-dimethylpyrimidin-5-yl)oxy)methyl)-2-(3-fluorophenyl)-N-(5-fluoropyridin-2-yl)cyclopropanecarboxamide]
- non-REM sleep: greater increase in non-REM sleep compared to treatment with placebo and zolpidem ER
